# Reference: patent publication US20190351012A1, “TARGETING OF INTERFERON-STIMULATED GENE EXPRESSION TO TREAT INTERFERONOPATHIES” (New York University, priority 2018, published 2019)
# “Also recorded” adds a separate entry of the source.
# System: BRD4
# Test: Nuclear BRD4 distribution (soluble versus chromatin-bound) by differential salt extraction and western blot in HeLa cells
# Type: cell-based, human
# Settings: western blot
# Procedure: FIG. 5. BRD4 is required for ISG transcription. (A) HeLa cells were either left untreated or treated with IFN-α for 1 h in presence or absence of JQ-1 or HMBA. Using primers spanning intron-exon junctions, nuclear pre-mRNA for ISG54 and γ-actin were quantified by real-time RT-PCR and normalized to GAPDH mRNA. (B) Control and BRD4 KD cells were either left untreated or treated with IFN-α. ISG56 and BRD4 mRNA were quantified using real-time RT-PCR and normalized to GAPDH mRNA abundance. (C) HEK293T cells were transfected with pcDNA3 (Ctl) or Brd4 expression constructs along with a luciferase reporter driven by the ISG54 promoter. 24 h after transfection, cells were either left untreated or treated with IFN-α in the absence or presence of TSA before being assayed for luciferase activity (left panel). HEK293T cells were transfected with pcDNA3 (Ctl) or Brd4 expression constructs along with a luciferase reporter driven by the constitutive RSV promoter and assayed for luciferase activity after 36 h (right panel). (D) Hela cells were either left untreated or treated with IFN-α for 2 h in presence or absence of TSA or Anacardic acid (AA). Nuclear proteins were extracted as a soluble fraction and a chromatin bound fraction and analyzed by western blotting using anti-BRD4, H4-AcK5 and actin antibodies. […] (F) ChIP assays were performed with antibodies against BRD4 and recovered ISG56, Mx1 and IRF9 TSS spanning sequences were quantified by real-time PCR, normalized to input, and represented as fold enrichment over the untreated sample.
# BRD4 is recruited to active promoters along with polymerase, and it associates with elongating polymerase to affect transcriptional elongation. […] Cells were treated with IFN in the presence or absence of TSA, and nuclear BRD4 was quantified in soluble versus chromatin-bound fractions by differential salt extraction (FIG. 5D). Most BRD4 was detected in the soluble nucleoplasm fraction in untreated or IFN-treated cells (FIG. 5D, compare lanes 1 and 2 with 5 and 6). […]
# Nuclear extracts were prepared and analyzed by immunoblotting as follows. […]
compound,measurement,setting,value
"CC(/C=C/C(=O)NO)=C\[C@@H](C)C(=O)c1ccc(N(C)C)cc1 [TSA, Trichostatin A]",soluble nuclear BRD4,IFN-α 2 h,undetectable; also recorded: depletion
same,histone acetylation (acetylated H4K5),,large increase
